Key:
[1] = target: 3',5'-cyclic-AMP phosphodiesterase 4A (Homo sapiens, UniProt P27815); assay: Intrinsic inhibition of GST-fused human PDE4A expressed in SF9 cells
[2] = target: Voltage-gated inwardly rectifying potassium channel KCNH2 (Homo sapiens, UniProt Q12809)
Blood [3] = assay: Inhibition of LPS-induced TNFalpha production in human whole blood; assay type: functional, tissue-based
Blood [4] = assay: Inhibition of LPS-induced TNFalpha production in Squirrel monkey whole blood; assay type: functional, tissue-based; conditions: Saimiri sciureus
Cytochrome P450 2C9 = Cytochrome P450 2C9 (Homo sapiens, UniProt P11712); assay: Inhibition of CYP2C9; assay type: ADME
Chain of Cytochrome P450 2C9 (P11712 whole entry): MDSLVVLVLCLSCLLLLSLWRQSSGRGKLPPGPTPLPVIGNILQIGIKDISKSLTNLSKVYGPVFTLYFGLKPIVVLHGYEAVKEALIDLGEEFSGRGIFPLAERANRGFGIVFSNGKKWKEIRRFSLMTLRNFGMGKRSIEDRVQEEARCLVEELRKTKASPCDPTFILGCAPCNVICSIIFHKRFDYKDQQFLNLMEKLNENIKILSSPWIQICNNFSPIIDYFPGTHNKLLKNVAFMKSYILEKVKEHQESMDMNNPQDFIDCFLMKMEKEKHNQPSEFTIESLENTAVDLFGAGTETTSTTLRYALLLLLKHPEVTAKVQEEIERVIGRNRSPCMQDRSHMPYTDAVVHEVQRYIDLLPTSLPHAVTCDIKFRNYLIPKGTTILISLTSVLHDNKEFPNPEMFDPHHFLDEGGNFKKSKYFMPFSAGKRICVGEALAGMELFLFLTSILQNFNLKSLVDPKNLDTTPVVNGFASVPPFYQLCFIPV

[5] = Half life in orally and iv dosed rat; assay type: ADME, organism-based; conditions: in vivo
[6] = Half life in orally and iv dosed dog; assay type: ADME, organism-based, Canis lupus familiaris; conditions: in vivo
[7] = Half life in orally and iv dosed Squirrel monkey; assay type: ADME, organism-based, Saimiri sciureus; conditions: in vivo
[8] = Cmax in po dosed squirrel monkey assessed after first episode of emesis; assay type: ADME, organism-based, Saimiri sciureus; parameters: route oral; conditions: in vivo
[9] = Bioavailability in orally and iv dosed rat; assay type: ADME, organism-based; conditions: in vivo, po
[10] = Bioavailability in orally and iv dosed dog; assay type: ADME, organism-based, Canis lupus familiaris; conditions: in vivo, po
[11] = Bioavailability in orally and iv dosed Squirrel monkey; assay type: ADME, organism-based, Saimiri sciureus; conditions: in vivo, po
Cavia porcellus = assay: Inhibition of ovalbumin-induced bronchoconstriction in conscious guinea pig at 0.03 mg/kg, ip administered 30 mins before ovalbumin challenge; assay type: functional; conditions: route intraperitoneal
Ovis aries = assay: Inhibition of late-phase antigen-induced bronchoconstriction in ascaris-sensitive sheep at 0.5 mg/kg, iv daily for 4 days and antigen challenged after 2 hrs post dose on 4th day; assay type: functional
[12] = Ratio of emesis Cmax in Squirrel monkey at 2 mg/kg, po to IC50 for LPS-induced TNFalpha production in Squirrel monkey whole blood; assay type: functional, Saimiri sciureus

Chain of 3',5'-cyclic-AMP phosphodiesterase 4A (P27815 whole entry, the tested form may be a part): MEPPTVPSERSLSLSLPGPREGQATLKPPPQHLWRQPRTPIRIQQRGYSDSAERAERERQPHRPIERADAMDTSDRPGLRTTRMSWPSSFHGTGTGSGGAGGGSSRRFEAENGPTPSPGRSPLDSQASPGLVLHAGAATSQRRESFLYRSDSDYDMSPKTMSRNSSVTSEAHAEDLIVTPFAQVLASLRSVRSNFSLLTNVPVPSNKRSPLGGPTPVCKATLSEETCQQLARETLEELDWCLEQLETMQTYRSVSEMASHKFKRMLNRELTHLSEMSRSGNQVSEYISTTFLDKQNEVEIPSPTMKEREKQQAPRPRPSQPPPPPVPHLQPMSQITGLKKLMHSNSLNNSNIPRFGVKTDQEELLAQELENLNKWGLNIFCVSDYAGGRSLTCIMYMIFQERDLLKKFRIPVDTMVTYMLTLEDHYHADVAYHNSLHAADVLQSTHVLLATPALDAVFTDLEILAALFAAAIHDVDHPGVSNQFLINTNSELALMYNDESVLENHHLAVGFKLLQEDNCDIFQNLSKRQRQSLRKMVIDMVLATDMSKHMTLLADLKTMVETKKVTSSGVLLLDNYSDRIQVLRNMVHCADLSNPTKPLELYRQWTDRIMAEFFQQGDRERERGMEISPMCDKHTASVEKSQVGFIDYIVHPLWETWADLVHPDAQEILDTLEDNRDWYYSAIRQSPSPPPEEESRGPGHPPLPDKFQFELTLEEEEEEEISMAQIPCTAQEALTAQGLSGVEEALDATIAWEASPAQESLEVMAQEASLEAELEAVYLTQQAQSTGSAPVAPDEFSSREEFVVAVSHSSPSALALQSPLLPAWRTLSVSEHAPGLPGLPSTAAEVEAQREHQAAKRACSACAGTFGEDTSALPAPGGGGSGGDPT
Chain of Voltage-gated inwardly rectifying potassium channel KCNH2 (Q12809 whole entry): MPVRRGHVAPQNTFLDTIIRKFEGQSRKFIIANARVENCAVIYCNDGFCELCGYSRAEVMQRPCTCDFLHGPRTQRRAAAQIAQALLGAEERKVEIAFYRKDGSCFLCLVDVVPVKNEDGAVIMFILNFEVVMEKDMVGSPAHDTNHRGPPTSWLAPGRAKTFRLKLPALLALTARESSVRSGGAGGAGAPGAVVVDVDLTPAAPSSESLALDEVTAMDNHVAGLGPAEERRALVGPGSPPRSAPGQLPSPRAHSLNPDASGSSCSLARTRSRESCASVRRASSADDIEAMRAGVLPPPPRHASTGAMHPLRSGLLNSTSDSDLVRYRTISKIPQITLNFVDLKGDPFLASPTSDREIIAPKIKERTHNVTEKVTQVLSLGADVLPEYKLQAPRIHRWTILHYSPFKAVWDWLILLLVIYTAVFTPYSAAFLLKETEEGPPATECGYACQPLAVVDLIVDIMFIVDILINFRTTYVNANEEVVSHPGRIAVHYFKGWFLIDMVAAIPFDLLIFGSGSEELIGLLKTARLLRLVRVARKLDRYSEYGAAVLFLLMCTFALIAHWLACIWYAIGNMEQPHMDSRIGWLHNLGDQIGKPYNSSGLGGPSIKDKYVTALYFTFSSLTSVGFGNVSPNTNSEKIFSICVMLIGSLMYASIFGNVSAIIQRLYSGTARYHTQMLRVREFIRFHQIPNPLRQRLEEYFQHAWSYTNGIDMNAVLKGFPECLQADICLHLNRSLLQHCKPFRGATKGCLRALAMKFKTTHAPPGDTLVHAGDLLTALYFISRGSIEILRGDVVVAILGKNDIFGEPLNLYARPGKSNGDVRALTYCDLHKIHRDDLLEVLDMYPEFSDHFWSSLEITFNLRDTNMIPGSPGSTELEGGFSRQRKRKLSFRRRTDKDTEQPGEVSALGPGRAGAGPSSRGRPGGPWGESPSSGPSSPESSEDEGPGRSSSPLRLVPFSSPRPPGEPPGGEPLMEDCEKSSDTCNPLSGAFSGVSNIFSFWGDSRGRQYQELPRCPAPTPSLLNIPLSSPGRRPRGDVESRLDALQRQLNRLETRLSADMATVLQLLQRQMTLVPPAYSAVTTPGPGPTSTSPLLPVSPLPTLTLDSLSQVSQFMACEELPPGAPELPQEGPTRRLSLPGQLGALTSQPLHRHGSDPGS

Row | SMILES | IC50 [1] [nM] | IC50 [2] [nM] | IC50 (Blood [3]) [nM] | further results
1 | NC(=O)c1cn(-c2cccc(Br)c2)c2ncccc2c1=O | 141 | > 94500 |  | 
2 | O=C(NC1CC1)c1cn(-c2cccc(C#Cc3cccnc3)c2)c2ncccc2c1=O |  | 16700 | 160 | 
3 | CC(C)NC(=O)c1cn(-c2cccc(Br)c2)c2ncccc2c1=O | 9.2 | 31600 | 700 | 
4 | Cc1ccc2c(=O)c(C(=O)NC(C)C)cn(-c3cccc(Br)c3)c2n1 | > 1000 |  |  | 
5 | CC(C)CNC(=O)c1cn(-c2cccc(Br)c2)c2ncccc2c1=O | 3.54 |  | 2100 | 
6 | CSc1ccc(-c2cccc(-n3cc(C(=O)NC(C)C)c(=O)c4cccnc43)c2)cc1 | 0.75 | 960 | 650 | 
7 | CC(C)NC(=O)c1cn(-c2ccccc2)c2ncccc2c1=O | 15.3 | 71500 | 700 | 
8 | CC(=O)c1cccc(-c2cccc(-n3cc(C(=O)NC(C)C)c(=O)c4cccnc43)c2)c1 | 0.37 | 6960 | 470 | 
9 | CC(C)NC(=O)c1cn(-c2cccc(-c3ccc(S(C)(=O)=O)cc3)c2)c2ncccc2c1=O | 0.62 | 23000 | 69 | 
10 | O=C(Nc1c(Cl)cncc1Cl)c1cn(-c2ccc(Cl)cc2)c2ncccc2c1=O | 0.45 | 198 | 180 | 
11 | Cc1ccc(-n2cc(C(=O)NC(C)C)c(=O)c3cccnc32)cc1Br | 66.5 |  |  | 
12 | O=C(NC1CC1)c1cn(-c2cccc(-c3ccncc3)c2)c2ncccc2c1=O |  | 18600 | 670 | 
13 | CC(=O)c1cccc(-c2cccc(-n3cc(C(=O)Nc4c(Cl)cncc4Cl)c(=O)c4cccnc43)c2)c1 | 0.17 |  | 5 | 
14 | CS(=O)(=O)c1ccc(-c2cccc(-n3cc(C(=O)NC4CC4)c(=O)c4cccnc43)c2)cn1 |  | 13600 | 140 | 
15 | CC(=O)c1ccc(-c2cccc(-n3cc(C(=O)NC(C)C)c(=O)c4cccnc43)c2)cc1 | 0.34 |  | 75 | 
16 | CC(C)(O)c1ccc(-c2cccc(-n3cc(C(=O)NC4CC4)c(=O)c4cccnc43)c2)c[n+]1[O-] | 6.2 | 50100 | 120 | IC50 (Blood [4]): 7 nM; IC50 (Cytochrome P450 2C9): 59000 nM; half-life [5]: 1.5 h; half-life [6]: 2 h; half-life [7]: 4 h; Cmax [8]: 3.7 µM; bioavailability [9]: 87%; bioavailability [10]: 100%; bioavailability [11]: 33%; inhibition in vivo at 0.03 mg/kg (Cavia porcellus): 69%; inhibition in vivo at 0.5 mg/kg (Ovis aries): 84%; Ratio [12]: 530
17 | O=C(NC1CC1)c1cn(-c2cccc(-c3cccnc3)c2)c2ncccc2c1=O |  |  | 160 | 
18 | CCOc1cccc(-c2cccc(-n3cc(C(=O)NC(C)C)c(=O)c4cccnc43)c2)c1 | 1.54 | 2700 | 840 | 
19 | CC(C)(O)c1ccc(-c2cccc(-n3cc(C(=O)NC4CC4)c(=O)c4cccnc43)c2)cn1 |  |  | 66 | half-life [5]: < 0.5 h
20 | Cc1noc(/C(=C/c2cccc(-c3cc(C(C)(C)S(C)(=O)=O)cc4cccnc34)c2)c2ccc(S(C)(=O)=O)cc2)n1 |  |  |  | half-life [5]: 4 h; half-life [6]: 5 h; half-life [7]: 4 h; Cmax [8]: 3 µM; bioavailability [9]: 95%; bioavailability [10]: 55%; bioavailability [11]: 33%; inhibition in vivo at 0.5 mg/kg (Ovis aries): 92%
21 | Cc1noc(/C(=C/c2cccc(-n3cc(C(=O)Nc4c(Cl)cncc4Cl)c(=O)c4cccnc43)c2)c2ccc(S(C)(=O)=O)cc2)n1 | 0.06 |  | 3 | 
22 | CC(C)N(C)C(=O)c1cn(-c2cccc(Br)c2)c2ncccc2c1=O | > 1000 |  |  | 
23 | O=C(NC1CC1)c1cn(-c2cccc(C#Cc3ccc[n+]([O-])c3)c2)c2ncccc2c1=O [MK-0873] | 6.7 |  | 180 | IC50 (Blood [4]): 23 nM; IC50 (Cytochrome P450 2C9): 41000 nM; half-life [5]: 2 h; half-life [6]: 2 h; half-life [7]: 5 h; Cmax [8]: 5.1 µM; bioavailability [9]: 98%; bioavailability [10]: 100%; bioavailability [11]: 38%; inhibition in vivo at 0.03 mg/kg (Cavia porcellus): 65%; inhibition in vivo at 0.5 mg/kg (Ovis aries): 84%
24 | CC(C)(O)c1ccc(C#Cc2cccc(-n3cc(C(=O)NC4CC4)c(=O)c4cccnc43)c2)c[n+]1[O-] |  | 89400 | 300 | 
